Where two headings read alike, the source gives them in different places.
Tests used:
Olfr691 = molecular target: T1, Olfr691 (Mus musculus, UniProt Q8VGW5); assay: dual-luciferase (cAMP/CREB reporter) ligand screen, Olfr691 in HEK293T cells; format: cell-based; conditions: for Olfr691 response in dual-luciferase assay: chemicals tested individually, screened at 500uM (* also at 100uM); for Relative response (% of 4-pentenoate response) at 500 µM: HEK-293T, 4 h, 0.5 mM ligand, normalized to the response of Olfr691 to the strongest ligand
T1 construct: Lucy (N); expressed in transfected cells; host or cells: HEK293T, co-transfected with RTP1S
T1 sequence (Q8VGW5 1-322): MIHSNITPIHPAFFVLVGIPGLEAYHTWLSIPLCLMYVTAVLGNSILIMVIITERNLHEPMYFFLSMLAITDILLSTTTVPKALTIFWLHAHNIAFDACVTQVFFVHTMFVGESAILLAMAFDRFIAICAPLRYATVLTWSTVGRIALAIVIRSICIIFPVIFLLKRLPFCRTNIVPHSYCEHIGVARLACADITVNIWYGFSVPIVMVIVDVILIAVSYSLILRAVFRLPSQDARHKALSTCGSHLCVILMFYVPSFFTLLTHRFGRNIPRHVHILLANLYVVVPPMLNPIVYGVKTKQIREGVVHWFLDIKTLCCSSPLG

Olfr545 = assay: dual-luciferase (cAMP/CREB reporter) ligand screen, Olfr545 in HEK293T cells; format: cell-based, mouse; set-up: key to Olfr545 response in dual-luciferase assay: ‘+’ or ‘–‘ in each column indicates if the olfactory receptor responded or had no effect to that specific chemical; -: ‘+’ or ‘–‘ in each column indicates if the olfactory receptor responded or had no effect to that specific chemical; conditions: chemicals tested individually, screened at 500uM (* also at 100uM)
Olfr99 = assay: dual-luciferase (cAMP/CREB reporter) ligand screen, Olfr99 in HEK293T cells; format: cell-based, mouse; set-up: key: ‘+’ or ‘–‘ in each column indicates if the olfactory receptor responded or had no effect to that specific chemical; -: ‘+’ or ‘–‘ in each column indicates if the olfactory receptor responded or had no effect to that specific chemical; conditions: chemicals tested individually, screened at 500uM (* also at 100uM)
Olfr31 = molecular target: T2, Olfr31 (Mus musculus, UniProt Q3KPA7); assay: dual-luciferase (cAMP/CREB reporter) ligand screen, Olfr31 in HEK293T cells; format: cell-based; conditions: chemicals tested individually, screened at 500uM (* also at 100uM)
T2 construct: expressed in transfected cells; host or cells: HEK293T, co-transfected with RTP1S
T2 sequence (Q3KPA7 1-317): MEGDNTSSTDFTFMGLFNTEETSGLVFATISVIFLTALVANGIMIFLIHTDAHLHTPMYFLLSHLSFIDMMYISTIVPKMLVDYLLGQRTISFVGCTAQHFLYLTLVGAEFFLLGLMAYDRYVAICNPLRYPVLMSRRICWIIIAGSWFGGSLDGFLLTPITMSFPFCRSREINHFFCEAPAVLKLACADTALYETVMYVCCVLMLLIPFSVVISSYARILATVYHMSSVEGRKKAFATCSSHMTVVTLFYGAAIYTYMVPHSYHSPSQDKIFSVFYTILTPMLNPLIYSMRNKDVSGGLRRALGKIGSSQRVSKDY

Olfr693 = assay: dual-luciferase (cAMP/CREB reporter) ligand screen, Olfr693 in HEK293T cells; format: cell-based, mouse; set-up: key: ‘+’ or ‘–‘ in each column indicates if the olfactory receptor responded or had no effect to that specific chemical; -: ‘+’ or ‘–‘ in each column indicates if the olfactory receptor responded or had no effect to that specific chemical; conditions: chemicals tested individually, screened at 500uM (* also at 100uM)

SMILES	Olfr691 response in dual-luciferase assay (Olfr691)	Olfr545 response in dual-luciferase assay (Olfr545)	Olfr99 response in dual-luciferase assay (Olfr99)	Olfr31 response in dual-luciferase assay (Olfr31)	Olfr693 response in dual-luciferase assay (Olfr693)	Olfr691 response (in words) (Olfr691; luciferase assay, co-expressed with RTP1S)	Olfr691 response (in words) (Olfr691)	Relative response (% of 4-pentenoate response) at 500 µM (Olfr691) [%]	EC50 (Olfr691; Olfr691 co-expressed with RTP1S in HEK293T cells, 10 µM to 7.5 mM) [µM]
O=C(O)CCC(=O)O [Succinate]	-	-	-	-	-				
C[N+](C)(C)[O-] [Trimethylamine N-oxide]	-	-	-	-	-				
O=c1[nH]c(=O)c2[nH]c(=O)[nH]c2[nH]1 [Uric acid]	-	-	-	-	-				
CC(=O)O [acetic acid]	-	-	-	-	-	not including			
C=CCSCC=C [allyl sulfide]	-	-	-	-	-				
CCCCCOC(C)=O [amyl acetate]	-	-	-	-	-				
O=Cc1ccccc1 [benzaldehyde]	-	-	-	-	-				
O=C(O)c1ccccc1 [benzoate]	+	-	-	-	-		induced Olfr691 responses	34 ± 1	
CCCC(=O)O [butyrate]	+	-	-	-	-			55 ± 2.5	
Cn1c(=O)c2c(ncn2C)n(C)c1=O [caffeine, reference compound]	-	-	-	-	-				
CCCCCC(=O)O [caproate]	+	-	-	-	-			80 ± 1.4	
O=C/C=C/c1ccccc1 [cinnamaldehyde]	-	-	-	-	-				
O=C(O)CC(O)(CC(=O)O)C(=O)O [citric acid]	-	-	-	-	-				
C/C=C/C(=O)O [crotonic acid]	+	-	-	-	-			39 ± 3	
OC1CCCCCC1 [cycloheptanol]	-	-	-	-	-				
O=C1CCCCC1 [cyclohexanone]	-	-	-	-	-				
CCCCCCCCCCCC(=O)O [dodecanoic acid]	-	-	-	-	-				
CCOC(=O)c1ccccc1 [ethyl benzoate]	-	-	-	-	-				
C=CCc1ccc(O)c(OC)c1 [eugenol]	-	-	-	-	-				
CCCCCCC(=O)O [heptanoate]	+	-	-	-	-			41 ± 2.1	
CC(C)C(=O)O [isobutyrate]	+	-	-	-	-			97 ± 10.8	1130
CC(C)CCC(=O)O [isocaproate]	+	-	-	-	-			37 ± 2.7	
N[C@@H](CCC(=O)O)C(=O)O [l-glutamate]	-	-	-	-	-				
CC(C)[C@H](N)C(=O)O [l-valine]	-	-	-	-	-				
